# Reference: patent US9261497B2, “Method of treating cancer with modulators of SCFSkp2” (New York University, priority 2012, dated 2016)
# Assays:
# p27 in 501 Mel cells = assay: Cycloheximide p27 half-life in 501 Mel cells; assay type: cell-based, human; settings: pretreated 16 hours with 10 μM inhibitor, vehicle half-life 1 hour
# Description: To assess the mechanism of p27 induction, cycloheximide half-lives were analyzed in 501 Mel cell lines pretreated with each inhibitor (10 μM) or 0.1% DMSO (vehicle). p27 degraded rapidly with a half-life of 1 hour with vehicle, and this rate was slowed by the inhibitors (FIG. 4C). […] Protein levels of Skp2 and Skp1 remained constant.
# Whole cell extracts were prepared and immunoblotted as previously described Dorrello et al., “S6K1- and betaTRCP-mediated Degradation of PDCD4 Promotes Protein Translation and Cell Growth,” Science 314:467-471 (2006), which is hereby incorporated by reference in its entirety. For knockdown of Skp2 or p27, shRNAs were induced with 2 ng/ml doxycycline for 48 hours, with the last 16 hours co-treated with 0.1% Vehicle or 10 μM inhibitors as indicated. For cycloheximide chase, cells were pretreated 16 h with 0.1% Vehicle or 10 μM inhibitors, followed by 20 ng/ml cycloheximide (Sigma) and whole cell extracts collected for each time point. 20 ng/ml cycloheximide (Sigma) was added to each plate and whole cell extract was collected for each time point. Scanning densitometry was performed on immunoblots using Image J software. For cell cycle analysis, cells were treated with 0.1% Vehicle or 10 μM inhibitors for 16 h. […] Signal was detected using the Becton Dickson LSRII flow cytometer and cell cycle profiles were analyzed with FloJo.
# p27 in ECC-1 cells = assay: Cycloheximide p27 half-life in ECC-1 cells; assay type: cell-based, human; settings: 18 h treatment, 20 μM CHX chase, control 3.2 h
# Description: The endometrial carcinoma cell line (derived from a well-differentiated endometrioid Type I ECA) ECC-1 cells (ATCC, Manassas, Va.) were plated at a density of 3×10^5/well/6-well plate and grown in DMEM:F12 supplemented with 10% FBS (BioWest, Ocala, Fla.). The cell line was passaged in the laboratory for fewer than 6 months after receipt. […] The protocol was approved by The Institutional Review Board of NYU, informed consent was obtained, and the samples were identified and graded by two surgical pathologists and graded according to the WHO (I-III) for decreased glandular structure and nuclear atypia (Silverberg, “Hyperplasia and Carcinoma of the Endometrium,” Semin. Diagn. Pathol. 5:135-153 (1988), which is hereby incorporated by reference in its entirety). ECAs were plated at a density of 2.2×10^6 cells/6-well Primaria® plates (BD Biosciences, San Jose, Calif.) in McCoys 5A media without phenol red containing 10% charcoal-stripped FBS, 2 mM L-Glutamine (Invitrogen) and antimycotic antibiotic solution (Mediatech, Hendon, Va.). ECC-1 cells and primary ECA cells were grown to 70-80% confluence, synchronized in serum-free media for 24 h, treated with 10 […] Skp2E3LIs for 18 h or as indicated in the figures. […] Whole cell lysates were collected at increasing time points (0, 2, 4, 6 h) and 20 μg protein/well analyzed for p27 by immunoblotting.
# [1] = target: T1, His6-Skp2-Skp1-Cks1 complex (Homo sapiens, UniProt P61024+Q13309); assay: Surface plasmon resonance (SPR); assay type: binding; settings: 1:1 interaction model; 25° C.
# T1 construct: His6-tagged human Skp2 (residues 89-424); Human full-length Cks1 was produced as described; made in house
# T1 sequence (Q13309 89-424 limits assumed): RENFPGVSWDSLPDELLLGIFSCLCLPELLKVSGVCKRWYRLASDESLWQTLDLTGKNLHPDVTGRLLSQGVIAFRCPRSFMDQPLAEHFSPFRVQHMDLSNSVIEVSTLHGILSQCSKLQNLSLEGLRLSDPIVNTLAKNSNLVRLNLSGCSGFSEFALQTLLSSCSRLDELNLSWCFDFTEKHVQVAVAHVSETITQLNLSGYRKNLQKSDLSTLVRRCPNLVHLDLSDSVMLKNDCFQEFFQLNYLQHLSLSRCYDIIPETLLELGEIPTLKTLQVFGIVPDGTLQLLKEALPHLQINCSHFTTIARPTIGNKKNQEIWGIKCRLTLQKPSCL
# T1 sequence (P61024 whole entry, the tested form may be a part): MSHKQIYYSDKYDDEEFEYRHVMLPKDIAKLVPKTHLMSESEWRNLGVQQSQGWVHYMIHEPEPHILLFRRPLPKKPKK
# ECC-1 cells = assay: ECC-1 cell proliferation (MTS assay); assay type: cell-based, human; settings: for Inhibition of cellular proliferation over the Vehicle control: 10 μM (FIG. 13A); for Blocking E2-induced proliferation: compound plus E2 (FIG. 14D)
# LNCaP = assay: Cell cycle FACS analysis, LNCaP; assay type: cell-based, human; settings: 10 μM for 16 hours
# Description: Whole cell extracts were prepared and immunoblotted as previously described Dorrello et al., “S6K1- and betaTRCP-mediated Degradation of PDCD4 Promotes Protein Translation and Cell Growth,” Science 314:467-471 (2006), which is hereby incorporated by reference in its entirety. For knockdown of Skp2 or p27, shRNAs were induced with 2 ng/ml doxycycline for 48 hours, with the last 16 hours co-treated with 0.1% Vehicle or 10 μM inhibitors as indicated. For cycloheximide chase, cells were pretreated 16 h with 0.1% Vehicle or 10 μM inhibitors, followed by 20 ng/ml cycloheximide (Sigma) and whole cell extracts collected for each time point. Scanning densitometry was performed on immunoblots using Image J software. For cell cycle analysis, cells were treated with 0.1% Vehicle or 10 μM inhibitors for 16 h. 1×10^6 cells were fixed in 70% ethanol for 2 h, treated with 200 μg/ml RNase A (Invitrogen) for 30 minutes, and stained with 20 μg/ml Propidium Iodine (Sigma). All samples were assayed in triplicates. Signal was detected using the Becton Dickson LSRII flow cytometer and cell cycle profiles were analyzed with FloJo.
# ARP-1 = assay: Viable cells, multiple myeloma ARP-1; assay type: cell-based, human; settings: 24 hours
# Description: (§1) Viable and metabolically active cells were assayed using CellTiter-Blue (Promega) or PrestoBlue (Invitrogen) following manufacturer's instruction. In a 96 well plate format, 15×10^3 cells were pretreated with 0.1% Vehicle or increasing concentration of inhibitors as noted (for 16 h, 24 h, 48 h, and/or 72 hr) and fluorescence was detected on the SpectraMax M2e (Molecular Devices) after 30 min incubation with dye.
# His-6Skp1-Skp2-Cks1 = target: T2, His-6Skp1-Skp2-Cks1 (Homo sapiens, UniProt P61024+Q13309); assay: Differential scanning fluorimetry (protein melt); assay type: binding; settings: compound 75 μM; protein 1.5 μM
# T2 construct: His6-tagged human Skp2 (residues 89-424); Human full-length Cks1 was produced as described; made in house
# T2 sequence (Q13309 89-424 limits assumed): as the sequence (Q13309 89-424 limits assumed) above
# T2 sequence (P61024 whole entry, the tested form may be a part): as the sequence (P61024 whole entry, the tested form may be a part) above
# Description: Protein melt assays were carried out following the manufacturer's protocol on the LightCycler 480 System II (Roche) using Sypro Orange dye (Sigma). Fluorescence (465 nm excitation/580 nm detection) was acquired (10 data points/sec) at a ramp rate of 0.06° C./sec between 20° C. and 85° C. Melting temperatures were calculated using the LightCycler 480 Protein Melt analysis tool (Roche).
# KSM-11 = assay: Viable cells, multiple myeloma KSM-11; assay type: cell-based, human; settings: 24 hours
# Description: as §1
# MCF-7 = assay: Viable and metabolically active cells, MCF-7; assay type: cell-based, human; settings: 16 h
# Description: as §1
Compound,p27 half-life (p27 in 501 Mel cells) [h],Extension of p27 half-life over cycloheximide (CHX) control (p27 in ECC-1 cells) [h],Inhibition of cellular proliferation over the Vehicle control (ECC-1 cells) [%],Blocking E2-induced proliferation (ECC-1 cells),further results
O=C(O)COc1ccc(C=C2SC(=O)N(CC(=O)c3ccc(Cl)cc3)C2=O)cc1 [Compound C16],3,–,–,–,–
O=C(NN=Cc1cc(Br)cc(Br)c1O)C(=Cc1ccccc1O)NC(=O)c1ccccc1 [Compound C20],5,2.7,30,"equal to the effect of blocking ER activation with ICI 182,780",Kd [1]: 47 ± 14 µM
COC(=O)C1=C(C)N(c2ccc(Br)cc2)C(=O)C1=Cc1ccccc1O [Compound C2],–,6.1,33,"equal to the effect of blocking ER activation with ICI 182,780","G1 cells (LNCaP): a mild, but significant, increase in G1 cells; S phase cells (LNCaP): a reduction in S phase cells; EC50 (ECC-1 cells; Hillslope method, read-out: EC50 inhibiting proliferation): 14.3 µM"
O=C(O)COc1ccc(Br)cc1C=C1SC(=S)N(Cc2cccnc2)C1=O [Compound C1],–,–,–,–,IC50 (ARP-1): 3.84 µM; Shift of melting temperature (Tm) of purified protein complex (His-6Skp1-Skp2-Cks1): shifted the melting temperature; IC50 (KSM-11): 1.84 µM; Rate of active cells (MCF-7): a lower rate of active cells
